We go through 2 molecules from publication PMC7643960 (PLoS ONE, 2020).

Series [1] deals with different malignancies in five dogs. To be noted: cited from earlier work.
A short description of series [2]: Franz-type diffusion cell (FDC) permeation with HPLC analysis. Type of series: in vitro ADME, horse. To be noted: any of the FDC experiments. The text has this:
Two different pharmaceutical formulations were provided by Skinomics GmbH, Halle, Germany, for in vitro permeation studies.
Skin from six horses was used for each FDC experiment. The skin from the lateral thorax was dissected at the Institute of Pathology, University of Veterinary Medicine Hannover, Foundation, Hannover, Germany, after euthanasia of the horses at the Clinic for Horses, University of Veterinary Medicine Hannover, Foundation, for reasons unrelated to the present study. Therefore, a prospective approval of the experiments by an animal research ethics committee was not required. Skin samples were stored at -20°C until use (maximum five months). Further skin sample preparation and diffusion experiments were performed as reported. Skin samples were incubated with test formulation 1 for 24 h and with test formulation 2 for 30 min and 24 h, respectively.
The following slices were 20-μm thick. […] A higher permeation rate of the compound was expected for 24-h experiments and, therefore, the 20-μm slices were stored and analyzed separately up to a depth of 310 μm. The slices were then pooled at 5 × 20 μm until a depth of a maximal 910 μm was reached. The cryostat blade was cleaned with tissues soaked in 80% methanol between each cut. The quantity of NVX-207 was determined by an analytic high-performance liquid chromatography (HPLC) method. […]

In series [3] the test system is normal human umbilical vein endothelial cells, fibroblasts and keratinocytes. To be noted: cited from earlier work.
Series [4] deals with human carbonic anhydrase isoenzyme IX. Further details: method as in PMID 15664816. Conditions: cited from earlier work.

`C=C(C)[C@@H]1CC[C@]2(C(=O)OCC(N)(CO)CO)CC[C@]3(C)[C@H](CC[C@@H]4[C@@]5(C)CC[C@H](OC(C)=O)C(C)(C)[C@@H]5CC[C@]43C)[C@@H]12` [NVX-207, 3-acetyl-betulinic acid-2-amino-3-hydroxy-2-hydroxymethyl-propanoate]: in series [1], the “tolerability of intralesional treatment” value is listed as “well tolerated” and the “tumor response to intralesional treatment” value was “clinically beneficial tumor response was observed”. In addition, in series [2], the “NVX-207 in the acceptor medium” value is “No NVX-207 was detected”. Also, the “impact on in vitro survival of normal cells” value in series [3] is “little impact”.

`C=C(C)[C@@H]1CC[C@]2(COS(N)(=O)=O)CC[C@]3(C)[C@H](CC[C@@H]4[C@@]5(C)CC[C@H](OS(N)(=O)=O)C(C)(C)[C@@H]5CC[C@]43C)[C@@H]12` [BBS, (3β)-Lup-20(29)-ene-3,28-diol, 3,28-disulfamate]: the “inhibition of carbonic anhydrase IX” value in series [4] is on record as “efficient inhibitor”.
